{
  "source": "patent US6335363B1",
  "about": "“Use of inhibitors of the KQTI channel and methods of controlling and treating diseases caused by helminths and ectoparasites” (Aventis Pharma Deutschland GmbH, priority 1998, dated 2002)",
  "data": [
    {"system": "KQT1 channel", "assay": "Activity against KQT1 in Xenopus oocytes (two-microelectrode voltage clamp)", "assay_type": "cell-based, Caenorhabditis elegans", "set-up": "dose or concentration left out as unconfirmed", "conditions": "KQT1 expressed in Xenopus oocytes; slowly activated potassium current", "procedure": "To test the ct of IKS channel blockers on the KQT1 channel, electrophysiological studies were carried out on Xenopus oocytes which express the KQT1 channel (specific IKS channel of the nematode Caenorhabditis elegans). An adult female frog (Xenopus laevis) was […] oocytes of all development stages were removed from the ovarian bags. Oocytes of the development stages V and VI were selected; using a nanoliter injector mounted in a micromanipulator, 10 ng of the KQT1-specific m-RNA were injected into each oocyte. After 1-4 days, sufficient KQT1 channels were expressed for it to be possible to measure the corresponding currents. For measuring the slowly activated potassium currents under constant intracellular conditions, the two-microelectrode voltage clamp method was employed. This method is based on operating with 2 intracellular microelectrodes; the first electrode measures the membrane potential against a reference electrode, the second electrode is used to inject current which is necessary to maintain a desired potential. During the measurement, the holding potential was adjusted to -80 mV, which corresponds to the open-circuit membrane potential. The electrophysiological measuring stand comprised a vibration-damped experiment table on which were mounted a purpose-made measuring chamber, 2 micromanipulators, in each case with a preamplifier and a holder for injection microelectrodes, and a stereomicroscope. The complete measuring stand was surrounded by a Faraday cage to minimize electrical disturbances during the measurement. During the measurement, the oocyte was suspended in a solution of ND96 buffer. To activate the voltage-dependent IKS channel, the oocyte membrane was depolarized by a voltage jump from the holding potential (-80 mV) to 0 mV, and this state was maintained for 10 seconds before the holding potential was reestablished. The time profile of the measuring protocol was repeated every 45 s. During the depolarization phase, the slowly activated potassium current was measured.", "units": {"Inhibition": "%"}, "values": [
      {"compound": "CCS(=O)(=O)N(C)C1CC(C)(C)Oc2cc(Cl)c(F)cc21", "note": "(stereo not drawn) [7-CHLORO-4-N- ETHYLSULFONYL-N- METHYLAMINO-6- FLUORO-2,2- DIMETHYLCHROMANE]", "Inhibition": 89},
      {"compound": "CCS(=O)(=O)N(CC(=O)Nc1ccncc1)C1CC(C)(C)Oc2ccc(F)cc21", "note": "(stereo not drawn) [2-[ETHANESULFONYL-(6- FLUORO-2,2-DIMETHYL- CHROMAN-4-YL)-AMINO]- N-PYRIDIN-4-YL- ACETAMIDE]", "Inhibition": 35},
      {"compound": "CCS(=O)(=O)N(CC(=O)NCCN(C)C)C1CC(C)(C)Oc2ccc(F)cc21", "note": "(stereo not drawn) [N-(2-DIMETHYLAMINO- ETHYL)-2-[ETHANE- SULFONYL-(6-FLUORO- 2,2-DIMETHYL-CHROMAN- 4-YL)-AMINO]- ACETAMIDE]", "Inhibition": 22},
      {"compound": "CN(C1=CC(C)(C)Oc2ccc(OCCCC(F)(F)F)cc21)S(C)(=O)=O", "note": "[N-[2,2-DIMETHYL-6-(4,4,4- TRIFLUOROBUTOXY)-2H- CHROMEN-4-YL]-N- METHYL- METHANESULFONAMIDE]", "Inhibition": 92},
      {"compound": "CCS(=O)(=O)N(C)C1CCCCc2ccc(F)cc21", "note": "(stereo not drawn)", "Inhibition": 78},
      {"compound": "CCS(=O)(=O)N(C)C1CC(C)(C)Oc2cc(OC)c(OC)cc21", "note": "(stereo not drawn) [4-N-ETHYLSULFONYL-N- METHYLAMINO-6,7 DIMETHOXY-2,2- DIMETHYLCHROMANE]", "Inhibition": 30},
      {"compound": "CCS(=O)(=O)N(C)C1c2cc(C#N)ccc2OC(C)(C)C1O", "note": "(stereo not drawn) [6-CYANO-4-TRANS-(N- ETHYLSULFONYL-N- METHYLAMINO)-3 HYDROXY-2,2- DIMETHYLCHROMANE]", "Inhibition": 40},
      {"compound": "CCS(=O)(=O)N(CCCC(F)(F)F)C1CC(C)(C)Oc2cc(Cl)c(Cl)cc21", "note": "(stereo not drawn) [6,7-DICHLORO-4-[N- ETHYLSULFONYL-N- (4,4,4-TRIFLUORO- BUTYL)AMINO]-2,2- DIMETHYLCHROMANE]", "Inhibition": 88},
      {"compound": "CCS(=O)(=O)N(CC(=O)NCCN(C)Cc1ccccc1)C1CC(C)(C)Oc2ccc(F)cc21", "note": "(stereo not drawn) [N-[2-(BENZYL-METHYL- AMINO)-ETHYL]-2- [ETHANESULFONYL-(6- FLUORO-2,2-DIMETHYL- CHROMAN-4-YL)-AMINO]- ACETAMIDE]", "Inhibition": 36}
    ]}
  ]
}
